The values that follow come from patent publication US20250002492A1, “COMPOSITIONS OF FOLATE ABSORPTION INHIBITORS AND METHODS THEREOF” (THE TEXAS A&M UNIVERSITY SYSTEM, priority 2023, published 2025).

The target of the series is T1, Folate Uptake Transporter (PCFT) in Caco2 cells (Homo sapiens, UniProt Q96NT5).
T1 construct: These cells express high levels of the PCFT/SLC46A1 receptor; host or cells: Caco-2
T1 sequence (Q96NT5 1-459): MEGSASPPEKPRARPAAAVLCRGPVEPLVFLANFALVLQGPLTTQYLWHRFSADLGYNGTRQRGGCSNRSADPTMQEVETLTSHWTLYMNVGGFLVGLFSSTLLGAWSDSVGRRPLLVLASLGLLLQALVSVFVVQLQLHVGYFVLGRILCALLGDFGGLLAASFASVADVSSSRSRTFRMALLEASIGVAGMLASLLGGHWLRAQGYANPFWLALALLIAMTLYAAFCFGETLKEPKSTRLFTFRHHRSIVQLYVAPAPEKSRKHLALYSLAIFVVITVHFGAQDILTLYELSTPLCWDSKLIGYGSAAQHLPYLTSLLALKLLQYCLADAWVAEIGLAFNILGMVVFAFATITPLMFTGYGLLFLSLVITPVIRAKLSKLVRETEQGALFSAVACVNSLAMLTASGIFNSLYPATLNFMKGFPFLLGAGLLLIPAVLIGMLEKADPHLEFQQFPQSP
As to the kind of experiment: Folate uptake transporter substrate assessment in Caco2 cell line (compound uptake with and without pemetrexed). Type of series: in vitro ADME. How it is done: Cell Plates were Prepared According to the Methods of Example 8 Using Caco-2 Cells from American Type Culture Collection at Passage 37.
The transport buffer (HBSS with 10 mM MES, pH 5.5) was prepared by weighing 1.952 g of MES and 0.35 g sodium hydrogen carbonate and adding into 900 mL of pure water followed by sonication to dissolve the content. Following the transfer of 100 mL of 10×HBSS into the solution. The solution was placed on a stirrer, the pH was slowly adjusted with hydrochloric acid to 5.5, and then the solution was filtered to get HBSS solution (with 10 mM MES, pH 5.5).
The test compounds and folic acid (1 μM) substrate solutions were prepared by diluting with pH 5.5 buffer. Next, the test compounds and folic acid (1 μM) substrate solution+positive control inhibitor (pemetrexed, 50 μM) were prepared. For the solution without inhibitor, DMSO was diluted with corresponding substrate solution to get the working incubation solution.
For the solution with inhibitor, the pre-incubation solution was prepared by adding the positive control inhibitor (pemetrexed, 50 μM) in pH 5.5 buffer. For the solution without inhibitor, DMSO was diluted with pH 5.5 buffer and used as the vehicle control.
When the 8-10 day Caco-2 cultured cells reached confluence and were differentiated, they were ready to be used for transport studies. The Caco-2 plate was removed from the incubator, and the medium was removed from the 24-well Plates. Next, cells were washed 3 times with 300 μL of pre-warmed pH 5.5 buffer. Then, 300 μL of pre-incubation solution was added into each well and the plate was placed at 37° C. for 30 minutes. The assay was performed in duplicate. After 30 minutes pre-incubation, the pre-incubation solution was aspirated, and 300 μL of pre-warmed working incubation solution was added to start the transporter assay. After 6 minutes incubation, cells were washed by quickly adding/aspirating 300 μL of ice-cold pH 5.5 buffer 4 times. The pH 5.5 buffer was removed and 300 μL of pure water was added into each well. Freeze-thaw in liquid nitrogen and 37° C. incubator was repeated for 3 times to lyse cells. After, centrifugation at 3,300 g was performed for 30 seconds. Next, 50 μL of supernatant was transferred to 200 μL methanol or acetonitrile containing internal standard and centrifuged at 3,300 g for 30 minutes. 200 μL aliquots of the supernatants were used for LC-MS/MS analysis. Standards were treated the same as samples.
A BCA Kit was used to determine the protein content for each well. Bovine serum albumin at 2, 1, 0.5, 0.25, 0.125, 0.0625, 0.0313, 0.0156, 0.00781 and 0.00391 mg/mL was prepared in Phosphate Buffer Saline (PBS, pH 7.4). 10 μL of supernatant was mixed from the previous step with the same volume of PBS. 20 μL of standard or test sample was added into 96-well clear plate and mixed with 200 μL working reagent. After 30 minutes incubation at 37° C., the absorbance at 562 nm was measured on the microplate reader.
Standard-curves: prepared 200 μM DMSO Folic acid solution, samples of 1000 nm, 300 nm, 100 nm, 30 nM, and 10 nM prepared using a PH 5.5 buffer, and a PH 5.5 buffer containing 50 μM of pemetrexed, respectively.
All calculations were carried out using Microsoft Excel. Peak areas were determined from extracted ion chromatograms. Uptake rate, in unit of pmol/mg protein/min, is calculated using the following equation: Uptake rate=Conc./(Protein×Time); Conc. is concentration of drug in cell lysate (nM), Protein is the protein concentration of cell lysate (mg/mL), and Time is the incubation time (minute). Uptake ratio is calculated using the following equation: Uptake ratio=Uptake rate without inhibitor/Uptake rate with inhibitor. Note: The compound was considered as a potential substrate of a particular transporter when the uptake ratio was greater than 2.

Consider `CC(=O)N1CCC(C(=O)N2CCN3C(=O)c4cc(-c5ccccc5)ccc4NC(=O)C3C2)CC1` (centres unmarked) [MPOL_B_1, 2-(1-acetylpiperidine-4-carbonyl)-8-phenyl-1,3,4,12a-tetrahydrobenzo[e]pyrazino[1,2-a][1,4]diazepine-6,12(2H,11H)-dione], for which the “cell permeability” value (Caco-2) is recorded as “least permeable”. The “Uptake Ratio(−Inhibitor/+Inhibitor)” value (human, Caco-2, 6 min, 1 μM, pH 5.5) was found to be 0.76.
